For assay [1], the target named is Acetylcholinesterase (Electrophorus electricus, UniProt O42275). Kind of assay: Inhibition of electric eel AChE using acetylthiocholine iodide as substrate preincubated with substrate for 15 mins followed by protein addition measured after 5 mins by Ellaman's method.
The nature of assay [2]: Antioxidant activity assessed as DPPH free radical scavenging activity. It counts as functional.
A short description of assay [3]: Inhibition of Saccharomyces cerevisiae alpha-glucosidase using PNP-G as substarte.
The subject of assay [4] is Pseudomonas aeruginosa. The assay is described as follows: Antibacterial activity against Pseudomonas aeruginosa ATCC 13384 after 16 hrs by broth dilution method. Particulars: ATCC 13384, 16 h. The class given is functional. In general terms: Dilution methods test growth across graded concentrations, often in twofold steps.
Assay [5] deals with Staphylococcus aureus. Kind of assay: Antibacterial activity against Staphylococcus aureus ATCC 6538 after 16 hrs by broth dilution method. The class given is functional. Particulars: ATCC 6538, 16 h.
Assay [6] deals with Entamoeba histolytica. Kind of assay: Antiamoebic activity against trophozoite stage of Entamoeba histolytica HM-1:IMSS incubated for 24 hrs measured after 48 hrs by dilution micromethod. The class given is functional.
Assay [7] has as its target T1, Amine oxidase [flavin-containing] B (Homo sapiens, UniProt P27338).
T1 sequence (P27338 whole entry): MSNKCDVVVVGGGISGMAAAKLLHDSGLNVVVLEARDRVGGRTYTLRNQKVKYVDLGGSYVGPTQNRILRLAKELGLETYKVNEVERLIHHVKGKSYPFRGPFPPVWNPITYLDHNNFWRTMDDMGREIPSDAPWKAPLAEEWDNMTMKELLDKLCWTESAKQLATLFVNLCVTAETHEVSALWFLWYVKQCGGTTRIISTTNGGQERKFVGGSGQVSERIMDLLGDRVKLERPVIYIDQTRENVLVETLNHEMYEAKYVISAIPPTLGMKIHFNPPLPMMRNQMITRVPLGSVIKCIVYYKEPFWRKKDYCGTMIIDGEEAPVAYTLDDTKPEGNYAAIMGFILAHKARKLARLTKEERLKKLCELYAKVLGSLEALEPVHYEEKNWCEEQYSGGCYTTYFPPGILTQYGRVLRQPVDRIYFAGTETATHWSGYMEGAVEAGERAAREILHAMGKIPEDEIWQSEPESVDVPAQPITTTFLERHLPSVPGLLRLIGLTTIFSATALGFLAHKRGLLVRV
The assay is described as follows: Inhibition of human MAO-B using p-tyramine as substrate by amplex red-based fluorescence assay.

In assay [8] the test system is MCF7. The assay is described as follows: Antiproliferative activity against human MCF7 cells after 4 hrs by MTT assay. The class given is functional, cell-based. Particulars: MCF7, 4 h.
The target in assay [9] is Beta-secretase 1 (Homo sapiens, UniProt P56817). The assay is described as follows: Inhibition of recombinant human BACE-1 using rhodamine labelled EVNLDAEFK as substrate after 90 mins by FRET assay.
Beta-secretase 1, sequence (P56817 whole entry): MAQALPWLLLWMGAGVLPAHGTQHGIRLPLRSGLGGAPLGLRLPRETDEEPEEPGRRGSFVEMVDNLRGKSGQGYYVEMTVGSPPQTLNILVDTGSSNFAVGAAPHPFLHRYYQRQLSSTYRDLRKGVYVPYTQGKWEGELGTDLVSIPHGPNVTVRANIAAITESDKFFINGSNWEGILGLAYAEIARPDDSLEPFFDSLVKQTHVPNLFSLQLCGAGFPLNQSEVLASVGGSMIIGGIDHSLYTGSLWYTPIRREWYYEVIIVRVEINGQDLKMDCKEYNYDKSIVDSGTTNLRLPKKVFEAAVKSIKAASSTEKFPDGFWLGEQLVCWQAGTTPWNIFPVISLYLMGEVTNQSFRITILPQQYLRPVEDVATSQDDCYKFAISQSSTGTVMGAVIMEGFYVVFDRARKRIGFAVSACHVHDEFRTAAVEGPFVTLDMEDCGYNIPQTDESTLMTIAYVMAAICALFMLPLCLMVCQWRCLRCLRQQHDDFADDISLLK
Assay [10] has as its system Candida tropicalis. The assay is described as follows: Antifungal activity against Candida tropicalis after 24 hrs by Neubauer chamber method. The class given is functional.
Assay [11] has as its system MG-63. Kind of assay: Antiproliferative activity against human MG63 cells after 48 hrs by MTT assay. Particulars: MG-63, 48 h. The class given is functional, cell-based.
Assay [12] relates to U2OS. The assay is described as follows: Antiproliferative activity against human U2OS cells after 48 hrs by MTT assay. It counts as functional, cell-based. On the technique in general: Tetrazolium dyes change colour on reduction, which living cells bring about.
Assay [13] has as its system KB. Kind of assay: Antiproliferative activity against human KB cells after 4 hrs by MTT assay. The class given is functional, cell-based.

The structures appear in SMILES notation. ≈ marks a conversion by molar mass, not a printed value.

The IC50 is the concentration that inhibits the measured activity by half. Usually EC50 stands for the concentration at which the effect is half-maximal. Broadly, the MIC is the smallest concentration in the dilution series that meets the test's criterion for growth inhibition. Higher therefore signals weaker potency.

Acetylcholinesterase, sequence (O42275 whole entry): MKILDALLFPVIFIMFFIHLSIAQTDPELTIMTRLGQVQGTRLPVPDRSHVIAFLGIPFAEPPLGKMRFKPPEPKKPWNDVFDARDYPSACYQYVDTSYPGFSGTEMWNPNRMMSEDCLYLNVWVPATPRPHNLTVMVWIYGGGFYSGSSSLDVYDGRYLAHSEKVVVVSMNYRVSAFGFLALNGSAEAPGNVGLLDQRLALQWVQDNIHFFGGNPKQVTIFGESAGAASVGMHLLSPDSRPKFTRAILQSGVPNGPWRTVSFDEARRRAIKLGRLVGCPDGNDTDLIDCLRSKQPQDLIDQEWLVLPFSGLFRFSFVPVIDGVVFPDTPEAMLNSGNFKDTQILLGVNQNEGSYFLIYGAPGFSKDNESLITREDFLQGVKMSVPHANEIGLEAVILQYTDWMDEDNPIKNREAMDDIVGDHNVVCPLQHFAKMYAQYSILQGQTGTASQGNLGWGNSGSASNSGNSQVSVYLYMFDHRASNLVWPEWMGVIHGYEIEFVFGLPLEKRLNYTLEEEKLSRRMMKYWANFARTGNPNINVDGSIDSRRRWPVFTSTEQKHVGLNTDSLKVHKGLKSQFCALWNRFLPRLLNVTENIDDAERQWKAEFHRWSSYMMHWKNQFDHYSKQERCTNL

As to `NC1=C(/C=C2\COc3ccccc3C2=O)C(=O)C2C=CC=CC2O1` (stereo unspecified), in assay [1], the midpoint of inhibition, the IC50, lay at 0.27 µM.
As for `COc1ccc2c(c1)OC/C(=C\c1ccc(O)c(O)c1)C2=O`, the EC50 in assay [2] was found to be 13 µM. Besides, the IC50 in [3] was found to be 28 µM.
For `O=c1c(/C=C/c2ccc(O)c(O)c2)coc2ccc(O)cc12`, the EC50 in assay [2] is 17 µM. For the same compound, in assay [3], the IC50 was 16 µM.
As to `CC(C)(C)n1nnnc1C(Nc1ccccc1)c1coc2cc(F)ccc2c1=O` (stereo unspecified), the MIC in assay [4] stood at 20 µg/mL (≈ 50.8 µM); in [5], 80 µg/mL (≈ 203 µM).
Take `CC(C)(C)n1nnnc1C(Nc1ccccc1I)c1coc2ccccc2c1=O` (stereo unspecified): the results for the MIC in assay [4] and in assay [5] were 160 µg/mL (≈ 319 µM) and 40 µg/mL (≈ 79.8 µM), respectively. In assay [6], this compound displayed an IC50 of 61.7 µg/mL (≈ 123 µM).
In the case of `Cc1ccc(N/C=C2\C(=O)Oc3ccccc3C2=O)cc1`, the IC50 in assay [7] worked out at 0.0423 µM.
`COc1ccc2c(=O)c(/C=C3\SC(=O)N(C)C3=O)coc2c1` displayed an IC50 in assay [8] of 32.8 µg/mL (≈ 103 µM).
In the case of `CCCCCC(=O)Oc1ccc2c(=O)c(C3C(OC(=O)CC)=C(C)NC(C)=C3OC(=O)CC)coc2c1`, the IC50 in [9] turned out to be 6.84 µM.
Consider `COc1cc(NC(c2coc3cc(F)ccc3c2=O)c2nnnn2C2CCCCC2)cc(OC)c1OC` (stereo unspecified), for which the MIC in [4] was found to be 80 µg/mL (≈ 157 µM); in assay [5], 160 µg/mL (≈ 314 µM); in assay [10], 6250 µg/mL (≈ 12300 µM).
As to `O=C1/C(=C/C2=COC3C=CC(Br)=CC3C2=O)COc2ccccc21` (stereo unspecified), the IC50 in assay [1] worked out at 0.96 µM.
In the case of `O=c1cc(N2CCOCC2)oc2c(-c3ccccc3)cccc12` [LY-294002], the IC50 in assay [11] was 55.2 µM; in assay [12], 63 µM.
In the case of `COc1ccc2c(=O)c(/C=C3\SC(=O)NC3=O)coc2c1`, in assay [13], the IC50 is 44.1 µg/mL (≈ 145 µM).
For `CC(C)(C)n1nnnc1C(Nc1ccc(Cl)cc1)c1coc2cc(F)ccc2c1=O` (stereo unspecified), in [6], the midpoint of inhibition, the IC50, lay at 61.7 µg/mL (≈ 144 µM).

For the origin of these results see ChEMBL document CHEMBL4017485, “Chromone as a Privileged Scaffold in Drug Discovery: Recent Advances” (J Med Chem, 2017).
